Experiments:
Rattus norvegicus [1] = assay: Serum creatinine concentration measured after intraperitoneal administration of 1 mg/kg of compound to rats(vehicle 4.91+/-0.10); format: functional
Rattus norvegicus [2] = assay: Urea nitrogen concentration measured after intraperitoneal administration of 1 mg/kg of compound to rats(vehicle 154+/-7); format: functional
Rattus norvegicus [3] = assay: Ratio of urinary excretion value (Na+ concentration) in treated rats to that in control rats, at a peroral dose of 6.25 mg/Kg; format: functional, Urine
Rattus norvegicus [4] = assay: Percent inhibition of serum creatinine by the compound given as ratio of Cr value in treated to vehicle treated ones after intraperitoneal administration of 1 mg/kg of compound to rats(vehicle 4.91+/-0.10); format: functional; conditions: ip
Rattus norvegicus [5] = assay: Percent inhibition of Urea nitrogen by the compound given as ratio of UN value in treated to vehicle treated ones after intraperitoneal administration of 1 mg/kg of compound to rats(vehicle 154+/-7); format: functional; conditions: ip
Rattus norvegicus [6] = assay: Ratio of urinary excretion value (urinary volume) in treated rats to that in control rats, at a peroral dose of 6.25 mg/Kg; format: functional, Urine
Adenosine receptor A1 = biological target: T1, Adenosine receptor A1 (Cavia porcellus, UniProt P47745)
T1 sequence (P47745 whole entry): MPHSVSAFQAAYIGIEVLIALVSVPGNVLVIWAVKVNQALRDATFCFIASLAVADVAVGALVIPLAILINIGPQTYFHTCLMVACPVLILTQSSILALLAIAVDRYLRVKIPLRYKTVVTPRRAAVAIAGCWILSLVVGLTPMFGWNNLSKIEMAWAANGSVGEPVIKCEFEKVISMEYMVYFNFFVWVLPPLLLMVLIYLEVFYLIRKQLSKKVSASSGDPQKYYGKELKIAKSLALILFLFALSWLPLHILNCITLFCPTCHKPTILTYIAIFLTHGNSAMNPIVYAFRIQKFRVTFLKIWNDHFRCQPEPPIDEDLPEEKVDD
Description: Binding affinity against adenosine A1 receptor in guinea pig forebrain membranes using N6-[3H]cyclohexyladenosine as radioligand

Adenosine A2 receptor = Adenosine A2 receptor (Rattus norvegicus, UniProt P29276+P30543)
Rattus norvegicus [7] = assay: Serum creatinine concentration measured after intraperitoneal administration of 1 mg/kg of compound to rats(vehicle 4.74+/-0.31); format: functional
Rattus norvegicus [8] = assay: Serum creatinine concentration measured after intraperitoneal administration of 1 mg/kg of compound to rats(vehicle 4.82+/-0.24); format: functional
Rattus norvegicus [9] = assay: Effect on urinary excretion potassium and sodium after oral administration of 0.4 mg/kg to rats(potassium and sodium excretion in control rat is 0.180+/-0.017); format: functional, Urine
Rattus norvegicus [10] = assay: Effect on urinary excretion potassium and sodium after oral administration of 1.6 mg/kg to rats(potassium and sodium excretion in control rat is 0.174+/-0.013); format: functional, Urine
Rattus norvegicus [11] = assay: Urea nitrogen concentration measured after intraperitoneal administration of 1 mg/kg of compound to rats(vehicle 138.8+/-7.8); format: functional
Rattus norvegicus [12] = assay: Percent inhibition of serum creatinine by the compound given as ratio of Cr value in treated to vehicle treated ones after intraperitoneal administration of 1 mg/kg of compound to rats(vehicle 4.74+/-0.31); format: functional; conditions: ip
Rattus norvegicus [13] = assay: Ratio of urinary excretion value (urinary volume) in treated rats to that in control rats, at a peroral dose of 0.4 mg/Kg; format: functional, Urine
Rattus norvegicus [14] = assay: Ratio of urinary excretion value (urinary volume) in treated rats to that in control rats, at a peroral dose of 1.6 mg/Kg; format: functional, Urine
Rattus norvegicus [15] = assay: Ratio of sodium ion/potassium ion concentration in treated rats to that in control rats, at a peroral dose of 0.4 mg/Kg; format: functional
Rattus norvegicus [16] = assay: Ratio of sodium ion/potassium ion concentration in treated rats to that in control rats, at a peroral dose of 1.6 mg/Kg; format: functional
Rattus norvegicus [17] = assay: Ratio of urinary excretion value (Na+ concentration) in treated rats to that in control rats, at a peroral dose of 0.4 mg/Kg; format: functional, Urine
Rattus norvegicus [18] = assay: Ratio of urinary excretion value (Na+ concentration) in treated rats to that in control rats, at a peroral dose of 1.6 mg/Kg; format: functional, Urine
Rattus norvegicus [19] = assay: Oral diuretic activity was measured after oral administration of 0.4 mg/kg to rats(control volume is 1.15+/-0.17); format: functional, Urine
Rattus norvegicus [20] = assay: Oral diuretic activity was measured after oral administration of 1.6 mg/kg to rats(control volume is 0.86+/-0.09); format: functional, Urine
Rattus norvegicus [21] = assay: Percent inhibition of serum creatinine by the compound given as ratio of Cr value in treated to vehicle treated ones after intraperitoneal administration of 1 mg/kg of compound to rats(vehicle 4.82+/-0.24); format: functional; conditions: ip
Rattus norvegicus [22] = assay: Percent inhibition of Urea nitrogen by the compound given as ratio of UN value in treated to vehicle treated ones after intraperitoneal administration of 1 mg/kg of compound to rats(vehicle 138.8+/-7.8); format: functional; conditions: ip
Rattus norvegicus [23] = assay: Percent inhibition of Urea nitrogen by the compound given as ratio of UN value in treated to vehicle treated ones after intraperitoneal administration of 1 mg/kg of compound to rats(vehicle 156.2+/-6.1); format: functional; conditions: ip
Rattus norvegicus [24] = assay: Urea nitrogen concentration measured after intraperitoneal administration of 1 mg/kg of compound to rats(vehicle 156.2+/-6.1); format: functional

CCCn1c(=O)[nH]c(=O)c2[nH]c(C3CCCC3)nc21
Cr (Rattus norvegicus [1]): 3.51 mg/dL
UN (Rattus norvegicus [2]): 117 mg/dL
T/C (Rattus norvegicus [3]): 2.07
inhibition in vivo at 1 mg/kg (Rattus norvegicus [4]): 28%
inhibition in vivo at 1 mg/kg (Rattus norvegicus [5]): 24%
T/C (Rattus norvegicus [6]): 1.76
Ki (Adenosine receptor A1): 1400 nM
Ki (Adenosine A2 receptor): > 100000 nM

CCCCn1c(=O)c2nc(C3CCCC3)[nH]c2n(CCCC)c1=O
Cr (Rattus norvegicus [7]): 2.74 mg/dL
Cr (Rattus norvegicus [8]): 4.03 mg/dL
Na (Rattus norvegicus [9]): 0.309 m equiv 6hr-1 100g-1
Na (Rattus norvegicus [10]): 0.299 m equiv 6hr-1 100g-1
UN (Rattus norvegicus [11]): 75 mg/dL
inhibition in vivo at 1 mg/kg (Rattus norvegicus [12]): 42%
T/C (Rattus norvegicus [13]): 1.26
T/C (Rattus norvegicus [14]): 1.86
Na+/K+ (Rattus norvegicus [15]): 1.23
Na+/K+ (Rattus norvegicus [16]): 1.32
T/C (Rattus norvegicus [17]): 1.61
T/C (Rattus norvegicus [18]): 1.72
Urine volume (Rattus norvegicus [19]): 1.45 ml 6hr-1 100g-1
Urine volume (Rattus norvegicus [20]): 1.6 ml 6hr-1 100g-1
inhibition in vivo at 1 mg/kg (Rattus norvegicus [21]): 16%
inhibition in vivo at 1 mg/kg (Rattus norvegicus [22]): 56%
inhibition in vivo at 1 mg/kg (Rattus norvegicus [23]): 2%
UN (Rattus norvegicus [24]): 153.6 mg/dL
Ki (Adenosine receptor A1): 4.2 nM
Ki (Adenosine A2 receptor): 170 nM

From ChEMBL document CHEMBL1125524, “Adenosine A1 antagonists. 2. Structure-activity relationships on diuretic activities and protective effects against acute renal failure” (J Med Chem, 1992)
